Source: US20230092890A1, “1, 3, 4-Oxadiazole derivative compounds as histone deacetylase 6 inhibitor, and the pharmaceutical composition comprising the same” (Chong Kun Dang Pharmaceutical Corp., priority 2019, published 2023)

What was measured:
HDAC6 human recombinant = biological target: T1, HDAC6 human recombinant (Homo sapiens, UniProt Q9UBN7); experiment: HDAC enzyme activity inhibition (in vitro), HDAC6 assay; format: biochemical; conditions: samples at 0.1, 1, 10, 100 and 1000 nM; 37° C. 60 minutes; fluorescence Ex 390, Em 460; read-out: HDAC6 IC50
T1 construct: purchased Calbiochem 382180
T1 sequence (Q9UBN7 1-1215): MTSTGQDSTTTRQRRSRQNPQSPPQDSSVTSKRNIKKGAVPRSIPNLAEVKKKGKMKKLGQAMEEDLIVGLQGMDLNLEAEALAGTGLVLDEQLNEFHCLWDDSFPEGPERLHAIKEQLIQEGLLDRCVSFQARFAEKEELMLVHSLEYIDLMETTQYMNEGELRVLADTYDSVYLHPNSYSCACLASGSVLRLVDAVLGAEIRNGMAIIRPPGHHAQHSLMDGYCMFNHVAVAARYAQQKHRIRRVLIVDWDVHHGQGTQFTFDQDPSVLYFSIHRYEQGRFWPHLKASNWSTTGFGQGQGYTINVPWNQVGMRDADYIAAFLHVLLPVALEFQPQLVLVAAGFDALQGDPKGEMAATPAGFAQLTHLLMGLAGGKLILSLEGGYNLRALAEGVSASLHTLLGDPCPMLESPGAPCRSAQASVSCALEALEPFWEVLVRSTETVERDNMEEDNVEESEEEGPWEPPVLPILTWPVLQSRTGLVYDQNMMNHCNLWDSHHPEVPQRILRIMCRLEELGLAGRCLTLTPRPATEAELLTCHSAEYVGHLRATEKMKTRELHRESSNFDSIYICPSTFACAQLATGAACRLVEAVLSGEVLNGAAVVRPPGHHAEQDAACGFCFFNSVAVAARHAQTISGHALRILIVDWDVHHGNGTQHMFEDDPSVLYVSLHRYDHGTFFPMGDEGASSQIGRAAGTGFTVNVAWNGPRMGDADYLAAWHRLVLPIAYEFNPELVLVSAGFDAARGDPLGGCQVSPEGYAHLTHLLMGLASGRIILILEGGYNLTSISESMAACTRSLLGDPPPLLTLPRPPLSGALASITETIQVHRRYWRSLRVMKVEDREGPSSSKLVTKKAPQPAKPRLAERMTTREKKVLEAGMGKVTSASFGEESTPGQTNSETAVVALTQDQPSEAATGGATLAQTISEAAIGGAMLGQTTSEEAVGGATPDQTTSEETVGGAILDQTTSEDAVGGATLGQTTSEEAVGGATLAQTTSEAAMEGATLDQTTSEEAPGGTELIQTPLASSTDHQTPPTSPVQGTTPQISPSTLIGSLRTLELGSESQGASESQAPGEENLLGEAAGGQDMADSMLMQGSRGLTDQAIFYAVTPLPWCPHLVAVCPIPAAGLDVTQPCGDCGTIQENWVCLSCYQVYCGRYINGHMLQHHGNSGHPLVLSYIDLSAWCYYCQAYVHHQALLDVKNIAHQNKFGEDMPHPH
Outline: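 Fluorescence (Ex 390, Em 460) read after a 37° C, 60 min enzyme reaction and a further 30 min developer step at 37° C. Uses recombinant human HDAC6; HDAC1 arm dosed at 100, 1000, 10000 nM.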

HDAC1 = biological target: T2, HDAC1 (Homo sapiens, UniProt Q13547); experiment: HDAC enzyme activity inhibition (in vitro), HDAC1 Fluorimetric Drug Discovery Assay Kit; format: biochemical; conditions: samples at 100, 1000 and 10000 nM; 37° C. 60 minutes; fluorescence Ex 390, Em 460; read-out: HDAC1 IC50
T2 construct: purchased Enzolifesciences BML-AK511
T2 sequence (Q13547 whole entry): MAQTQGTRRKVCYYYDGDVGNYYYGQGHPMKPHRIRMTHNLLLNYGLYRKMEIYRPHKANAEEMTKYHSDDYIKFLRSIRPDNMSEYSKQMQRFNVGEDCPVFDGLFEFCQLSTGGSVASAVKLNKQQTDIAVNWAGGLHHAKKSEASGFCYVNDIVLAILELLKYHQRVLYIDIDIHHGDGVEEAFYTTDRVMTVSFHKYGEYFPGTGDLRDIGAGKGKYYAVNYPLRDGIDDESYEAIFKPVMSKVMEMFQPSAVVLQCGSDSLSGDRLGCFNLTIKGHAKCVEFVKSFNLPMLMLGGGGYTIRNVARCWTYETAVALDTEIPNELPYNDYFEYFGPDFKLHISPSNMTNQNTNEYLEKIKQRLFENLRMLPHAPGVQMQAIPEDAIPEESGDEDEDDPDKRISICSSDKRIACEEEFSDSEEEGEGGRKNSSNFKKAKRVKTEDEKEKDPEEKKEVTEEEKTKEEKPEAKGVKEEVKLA
Outline: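 Fluorimetric read-out (Ex 390, Em 460) after a 60 min 37° C enzyme reaction and 30 min 37° C developer step. Tested levels: 0.1-1000 nM (0.1, 1, 10, 100, 1000) on recombinant human HDAC6; 100, 1000 and 10000 nM on HDAC1 kit enzyme.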

SMILES | IC50 (HDAC6 human recombinant) [nM] | IC50 (HDAC1) [nM]
O=c1n(Cc2ccc(-c3nnc(C(F)F)o3)cc2F)c2ccccc2n1C1CCS(=O)(=O)CC1 [Compound 35, 1-(4-(5-(difluoromethyl)-1,3,4-oxadiazole-2-yl)-2-fluorobenzyl)-3-(1,1-dioxydotetrahydro-2H-thiopyran-4-yl)-1,3-dihydro-2H-benzo[d]imidazole-2-one] | 203 | > 10000
CC(C)(C)OC(=O)n1ccc2cc(-c3ccc4c(c3)sc(=O)n4Cc3ccc(-c4nnc(C(F)F)o4)cn3)ccc21 [Compound 237, tert-butyl 5-(3-((5-(5-(difluoromethyl)-1,3,4-oxadiazole-2-yl)pyridine-2-yl)methyl)-2-oxo-2,3-dihydrobenzo[d]thiazole-6-yl)-1H-indole-1-carboxylate] | 1140 | > 10000
O=c1oc2cc(N3CCN(C4COC4)CC3)c(F)cc2n1Cc1ccc(-c2nnc(C(F)F)o2)cn1 [Compound 318, 3-((5-(5-(difluoromethyl)-1,3,4-oxadiazole-2-yl)pyridine-2-yl)methyl)-5-fluoro-6-(4-(oxetan-3-yl)piperazine-1-yl)benzo[d]oxazole-2(3H)-one] | 56 | > 10000
CC(=O)N1CCC(n2c(=O)n(Cc3ccc(-c4nnc(C(F)F)o4)cn3)c3ccc(F)cc32)CC1 [Compound 42, 3-(1-acetylpiperidine-4-yl)-1-((5-(5-(difluoromethyl)-1,3,4-oxadiazole-2-yl)pyridine-2-yl)methyl)-5-fluoro-1,3-dihydro-2H-benzo[d]imidazole-2-one] | 106 | > 10000
O=c1n(CCN2CC3(COC3)C2)c2ccccc2n1Cc1ccc(-c2nnc(C(F)F)o2)cc1 [Compound 26, 1-(2-(2-oxa-6-azaspiro[3.3]heptane-6-yl)ethyl)-3-(4-(5-(difluoromethyl)-1,3,4-oxadiazole-2-yl)benzyl)-1,3-dihydro-2H-benzo[d]imidazole-2-one] | 209 | > 10000
Cc1ccc(-c2ccc3c(c2)n(C)c(=O)n3Cc2ccc(-c3nnc(C(F)F)o3)cn2)o1 [Compound 218, 1-((5-(5-(difluoromethyl)-1,3,4-oxadiazole-2-yl)pyridine-2-yl)methyl)-3-methyl-5-(5-methylfuran-2-yl)-1,3-dihydro-2H-benzo[d]imidazole-2-one] | 44 | > 10000
O=c1n(Cc2ccc(-c3nnc(C(F)F)o3)cn2)c2cc(Cl)ccc2n1C1CCN(CC(F)(F)C(F)F)CC1 [Compound 235, 5-chloro-3-((5-(5-(difluoromethyl)-1,3,4-oxadiazole-2-yl)pyridine-2-yl)methyl)-1-(1-(2,2,3,3-tetrafluoropropyl)piperidine-4-yl)-1,3-dihydro-2H-benzo[d]imidazole-2-one] | 103 | > 10000
O=c1n(CCN2CC3(COC3)C2)c2ccccc2n1Cc1ccc(-c2nnc(C(F)F)o2)cc1F [Compound 24] | 137 | > 10000

These reach a lower IC50 (HDAC6 human recombinant). Values come first.

IC50 (HDAC6 human recombinant) [nM] | IC50 (HDAC1) [nM] | SMILES
28 | > 10000 | O=c1n(Cc2ccc(-c3nnc(C(F)F)o3)cn2)c2ccc(Cl)cc2n1C1CCN(C2COC2)CC1 [Compound 98, 5-chloro-1-((5-(5-(difluoromethyl)-1,3,4-oxadiazole-2-yl)pyridine-2-yl)methyl)-3-(1-(oxetan-3-yl)piperidine-4-yl)-1,3-dihydro-2H-benzo[d]imidazole-2-one]
17 | > 10000 | Cn1c(=O)n(Cc2ccc(-c3nnc(C(F)F)o3)cn2)c2ccc(-c3ccncc3)cc21 [Compound 209, 1-((5-(5-(difluoromethyl)-1,3,4-oxadiazole-2-yl)pyridine-2-yl)methyl)-3-methyl-5-(pyridine-4-yl)-1,3-dihydro-2H-benzo[d]imidazole-2-one]
18 | > 10000 | CN1CCC(n2c(=O)n(Cc3ccc(-c4nnc(C(F)F)o4)cn3)c3cc(F)c(-c4ccc5c(ccn5C)c4)cc32)CC1 [Compound 250, 1-((5-(5-(difluoromethyl)-1,3,4-oxadiazole-2-yl)pyridine-2-yl)methyl)-6-fluoro-5-(1-methyl-1H-indole-5-yl)-3-(1-methylpiperidine-4-yl)-1,3-dihydro-2H-benzo[d]imidazole-2-one]
9 | > 10000 | O=c1n(Cc2ccc(-c3nnc(C(F)F)o3)cn2)c2cc(F)c(-c3cccnc3)cc2n1[C@@H]1CCN(C2COC2)C1 [Compound 286, (R)-1-((5-(5-(difluoromethyl)-1,3,4-oxadiazole-2-yl)pyridine-2-yl)methyl)-6-fluoro-3-(1-(oxetan-3-yl)pyrrolidine-3-yl)-5-(pyridine-3-yl)-1,3-dihydro-2H-benzo[d]imidazole-2-one]
33 | > 10000 | Cn1c(=O)n(Cc2ccc(-c3nnc(C(F)F)o3)cn2)c2ccc(-c3ccsc3)cc21 [Compound 219, 1-((5-(5-(difluoromethyl)-1,3,4-oxadiazole-2-yl)pyridine-2-yl)methyl)-3-methyl-5-(thiophene-3-yl)-1,3-dihydro-2H-benzo[d]imidazole-2-one]
36 | > 10000 | O=c1n(Cc2ccc(-c3nnc(C(F)F)o3)cn2)c2cc(F)ccc2n1C1CCN(C2CCSCC2)CC1 [Compound 57, 3-((5-(5-(difluoromethyl)-1,3,4-oxadiazole-2-yl)pyridine-2-yl)methyl)-5-fluoro-1-(1-(tetrahydro-2H-thiopyran-4-yl)piperidine-4-yl)-1,3-dihydro-2H-benzo[d]imidazole-2-one]
9 | > 10000 | Cn1c(=O)n(Cc2ccc(-c3nnc(C(F)F)o3)cn2)c2ccc(-c3cn[nH]c3)cc21 [Compound 247, 1-((5-(5-(difluoromethyl)-1,3,4-oxadiazole-2-yl)pyridine-2-yl)methyl)-3-methyl-5-(1H-pyrazole-4-yl)-1,3-dihydro-2H-benzo[d]imidazole-2-one]
19 | > 10000 | CN1CCC(n2cc(-c3ccc4c(c3)sc(=O)n4Cc3ccc(-c4nnc(C(F)F)o4)cn3)cn2)CC1 [Compound 353, 3-((5-(5-(difluoromethyl)-1,3,4-oxadiazole-2-yl)pyridine-2-yl)methyl)-6-(1-(1-methylpiperidine-4-yl)-1H-pyrazole-4-yl)benzo[d]thiazole-2(3H)-one]
6 | > 10000 | O=c1n(Cc2ccc(-c3nnc(C(F)F)o3)cn2)c2cc(F)c(-c3cccc4[nH]ccc34)cc2n1C1CN(C2COC2)C1 [Compound 310, 1-((5-(5-(difluoromethyl)-1,3,4-oxadiazole-2-yl)pyridine-2-yl)methyl)-6-fluoro-5-(1H-indole-4-yl)-3-(1-(oxetan-3-yl)azetidine-3-yl)-1,3-dihydro-2H-benzo[d]imidazole-2-one]
20 | > 10000 | CN1CCC(n2c(=O)n(Cc3ccc(-c4nnc(C(F)F)o4)cn3)c3ccc(-c4ccccc4F)cc32)CC1 [Compound 134, 1-((5-(5-(difluoromethyl)-1,3,4-oxadiazole-2-yl)pyridine-2-yl)methyl)-5-(2-fluorophenyl)-3-(1-methylpiperidine-4-yl)-1,3-dihydro-2H-benzo[d]imidazole-2-one]
42 | > 10000 | CC(=O)N1CCC(n2c(=O)n(Cc3ccc(-c4nnc(C(F)F)o4)cn3)c3cc(C(F)(F)F)ccc32)CC1 [Compound 176, 1-(1-acetylpiperidine-4-yl)-3-((5-(5-(difluoromethyl)-1,3,4-oxadiazole-2-yl)pyridine-2-yl)methyl)-5-(trifluoromethyl)-1,3-dihydro-2H-benzo[d]imidazole-2-one]
